Data: the supplement of paper PMC10307832

How the values were obtained:
Assay in all cases: relative viability (nuclei count vs DMSO), 5 days (fraction); higher = more cells survive
AT9283 + Dasatinib = compound: O=C(Nc1c[nH]nc1-c1nc2ccc(CN3CCOCC3)cc2[nH]1)NC1CC1 [AT9283] + Cc1nc(Nc2ncc(C(=O)Nc3c(C)cccc3Cl)s2)cc(N2CCN(CCO)CC2)n1 [Dasatinib] (partner 0.075 µM)
Method in brief: (§1)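 Cells from lung cancer lines were seeded into 1536-well plates and, one day later, dosed by pin tool. Treatments were either a single drug or a fixed dose of an anchor drug with five library-drug doses (not always all listed) in √10 steps. After 5 days, nuclei were stained in a one-step fixation (final 0.05% Triton X-100, 1% formaldehyde, 1 ug/ml Hoechst) and counted on 4× images, and relative viability is the treated-to-vehicle nuclei ratio, as the median of duplicate plates.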

AT9283 + Phenformin = compound: O=C(Nc1c[nH]nc1-c1nc2ccc(CN3CCOCC3)cc2[nH]1)NC1CC1 [AT9283] + N=C(N)NC(=N)NCCc1ccccc1 [Phenformin] (partner 250 µM)
Method in brief: as §1

Erlotinib + OSI-027 = compound: C#Cc1cccc(Nc2ncnc3cc(OCCOC)c(OCCOC)cc23)c1 [Erlotinib] + COc1cccc2cc(-c3nc([C@H]4CC[C@H](C(=O)O)CC4)n4ncnc(N)c34)[nH]c12 [OSI-027] (partner 0.5 µM)
Method in brief: as §1

AT9283 + Alpelisib = compound: O=C(Nc1c[nH]nc1-c1nc2ccc(CN3CCOCC3)cc2[nH]1)NC1CC1 [AT9283] + Cc1nc(NC(=O)N2CCC[C@H]2C(N)=O)sc1-c1ccnc(C(C)(C)C(F)(F)F)c1 [Alpelisib] (partner 2 µM)
Method in brief: as §1

Erlotinib + Olaparib = compound: C#Cc1cccc(Nc2ncnc3cc(OCCOC)c(OCCOC)cc23)c1 [Erlotinib] + O=C(c1cc(Cc2n[nH]c(=O)c3ccccc23)ccc1F)N1CCN(C(=O)C2CC2)CC1 [Olaparib] (partner 8 µM)
Method in brief: as §1

Cell Line NCI-H441 has a relative viability (AT9283 + Dasatinib; first compound 0.003 µM) of 0.567, a relative viability (AT9283 + Dasatinib; first compound 0.03 µM) of 0.49 and a relative viability (AT9283 + Dasatinib; first compound 0.09487 µM) of 0.318. It also gave a relative viability (AT9283 + Dasatinib; first compound 0.3 µM) of 0.209, a relative viability (AT9283 + Phenformin; first compound 0.003 µM) of 0.858 and a relative viability (AT9283 + Phenformin; first compound 0.03 µM) of 0.853. The relative viability (AT9283 + Phenformin; first compound 0.09487 µM) was 0.286, the relative viability (AT9283 + Phenformin; first compound 0.3 µM) was 0.244 and the relative viability (Erlotinib + OSI-027; first compound 0.02 µM) was 0.603. The relative viability (Erlotinib + OSI-027; first compound 0.6325 µM) was 0.535, the relative viability (Erlotinib + OSI-027; first compound 2 µM) was 0.355 and the relative viability (AT9283 + Alpelisib; first compound 0.003 µM) was 0.717. For the same cell line, the relative viability (AT9283 + Alpelisib; first compound 0.03 µM) was 0.641, the relative viability (AT9283 + Alpelisib; first compound 0.09487 µM) was 0.235 and the relative viability (AT9283 + Alpelisib; first compound 0.3 µM) was 0.198. The relative viability (Erlotinib + Olaparib; first compound 0.02 µM) was 0.626, the relative viability (Erlotinib + Olaparib; first compound 0.2 µM) was 0.54 and the relative viability (Erlotinib + Olaparib; first compound 0.6325 µM) was 0.534. For the same cell line, the relative viability (Erlotinib + Olaparib; first compound 2 µM) was 0.495.
